Test results taken from patent publication US12692261B2, “Substituted heterocyclic compounds and therapeutic uses thereof” (Bayer Aktiengesellschaft, priority 2020, dated 2026).
Values joined by “and” are separate entries in the source; they are usually repeats but may differ in a detail not shown here. Identical values can stand only once. Like-named read-outs stand apart in the source and are kept apart here.

Tests used:
[1] = target: T1, wild-type Epidermal Growth Factor Receptor (EGFR) (Homo sapiens, UniProt P00533); assay: WT-EGFR Kinase Assay (TR-FRET, 2 mM ATP); type: biochemical
T1 construct: a fragment of human EGFR (amino acids R669 to A1210); made in house; host or cells: Sf9 insect cells
Procedure, shortened: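 GST-fused human EGFR fragment (R669-A1210) from Sf9 cells, typically 7.6 pg/μL, pre-incubated with compound 15 min at 22° C in Hepes pH 7.0 buffer with MgCl2, DTT and vanadate; biotinylated peptide substrate. After EDTA stop, phosphopeptide detected by TR-FRET (anti-phosphotyrosine Tb-cryptate/streptavidin-XL665), 665/620 nm emission ratio.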

[2] = target: T2, full-length human CSNK1D (Homo sapiens, UniProt P48730); assay: CSNK1D Assay (ADP-Glo, 1 μM ATP); type: biochemical; conditions: Table 3, read-out: CSNK1D IC50 [mol/l] (median)
T2 construct: N-terminal Glutathion-S-Transferase (GST) and full-length human CSNK1D; purchased Life Technologies PV3665; host or cells: baculovirus infected insect cells
Procedure, shortened: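 ADP-Glo luminescence reports ADP generated by GST-fused full-length human CSNK1D (insect-cell expressed, about 0.5 ng/μL) acting on a biotinylated peptide at 1 μM ATP. Test compounds were pre-bound to enzyme 15 min at 22° C in 50 mM HEPES pH 7.5.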

[3] = EGFR Wildtyp 2 mM ATP IC50 [mol/l] (median), Table 4
[4] = read-out: EGFR Wildtyp 2 mM ATP IC50 [mol/l] (median), Table 4

T2 sequence (P48730 whole entry): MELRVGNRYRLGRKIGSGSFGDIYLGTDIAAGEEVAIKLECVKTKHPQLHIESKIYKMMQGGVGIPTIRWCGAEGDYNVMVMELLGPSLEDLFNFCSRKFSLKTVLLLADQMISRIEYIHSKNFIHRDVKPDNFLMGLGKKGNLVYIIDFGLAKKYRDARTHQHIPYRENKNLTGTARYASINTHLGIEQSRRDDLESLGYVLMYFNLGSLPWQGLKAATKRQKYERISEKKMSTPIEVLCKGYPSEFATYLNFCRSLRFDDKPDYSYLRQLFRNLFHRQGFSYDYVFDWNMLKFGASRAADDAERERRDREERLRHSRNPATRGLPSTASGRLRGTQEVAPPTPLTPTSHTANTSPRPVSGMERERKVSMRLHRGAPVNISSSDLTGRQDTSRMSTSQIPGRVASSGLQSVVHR
T1 sequence (P00533 669-1210): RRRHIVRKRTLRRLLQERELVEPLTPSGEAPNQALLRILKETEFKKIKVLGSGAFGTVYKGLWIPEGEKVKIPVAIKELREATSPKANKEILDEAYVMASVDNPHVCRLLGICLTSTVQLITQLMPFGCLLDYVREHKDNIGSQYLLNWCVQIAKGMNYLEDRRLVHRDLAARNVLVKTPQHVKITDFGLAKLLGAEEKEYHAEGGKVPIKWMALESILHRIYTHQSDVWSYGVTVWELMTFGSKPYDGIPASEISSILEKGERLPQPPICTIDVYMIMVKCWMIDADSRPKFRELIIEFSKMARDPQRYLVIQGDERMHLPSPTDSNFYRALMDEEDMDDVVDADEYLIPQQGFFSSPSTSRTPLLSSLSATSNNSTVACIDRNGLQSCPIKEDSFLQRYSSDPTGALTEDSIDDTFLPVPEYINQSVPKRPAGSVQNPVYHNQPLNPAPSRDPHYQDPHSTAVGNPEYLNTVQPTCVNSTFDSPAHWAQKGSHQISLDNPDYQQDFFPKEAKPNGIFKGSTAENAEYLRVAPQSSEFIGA

Compound	IC50 [1, 3]	IC50 [2] [nM]	IC50 [1, 4] [nM]
O=C(Nc1cc(-c2[nH]c3c(O[C@H]4CCOC4)cc(F)nc3c2-c2ccccn2)ccn1)C(CC(F)F)c1ccc(F)cc1 (mixture of isomers) [Example 53, (2RS)-4,4-difluoro-N-{4-[5-fluoro-7-{[(3S)-oxolan-3-yl]oxy}-3-(pyridin-2-yl)-1H-pyrrolo[3,2-b]pyridin-2-yl]pyridin-2-yl}-2-(4-fluorophenyl)butanamide]	> 20000 nM	7.31	–
O=C(Nc1cc(-c2[nH]c3c(OC[C@@H]4COCCO4)cc(F)nc3c2-c2ccccn2)ccn1)C(CC(F)F)c1ccc(F)cc1 (mixture of isomers) [Example 57, (2RS)—N-(4-{7-[(2S)-1,4-dioxan-2-ylmethoxy]-5-fluoro-3-(pyridin-2-yl)-1H-pyrrolo[3,2-b]pyridin-2-yl}pyridin-2-yl)-4,4-difluoro-2-(4-fluorophenyl)butanamide]	> 20000 nM	6.33	–
O=C(Nc1cc(-c2[nH]c3c(O[C@H]4CCOC4)ncnc3c2-c2ccccn2)ccn1)C(CC(F)F)c1ccc(F)cc1 (mixture of isomers) [Example 72, (2RS)-4,4-difluoro-2-(4-fluorophenyl)-N-{4-[4-{[(3S)-oxolan-3-yl]oxy}-7-(pyridin-2-yl)-5H-pyrrolo[3,2-d]pyrimidin-6-yl]pyridin-2-yl}butanamide]	> 20000 nM	7.3	–
O=C(Nc1cc(-c2[nH]c3ccc(F)nc3c2-c2ccccn2)ccn1)C(CC(F)F)c1ccc(F)cc1 (racemic) [Example 1, 4,4-difluoro-2-(4-fluorophenyl)-N-{4-[5-fluoro-3-(pyridin-2-yl)-1H-pyrrolo[3,2-b]pyridin-2-yl]pyridin-2-yl}butanamide]	> 20000 nM	15.7	–
CN1CCN(c2cc(F)nc3c(-c4ccccn4)c(-c4ccnc(NC(=O)C(CC(F)F)c5ccc(F)cc5)c4)[nH]c23)CC1 (racemic) [Example 56, (2RS)-4,4-difluoro-N-{4-[5-fluoro-7-(4-methylpiperazin-1-yl)-3-(pyridin-2-yl)-1H-pyrrolo[3,2-b]pyridin-2-yl]pyridin-2-yl}-2-(4-fluorophenyl)butanamide]	> 20000 nM	6.67	–
O=C(Nc1cc(-c2[nH]c3nc(F)cnc3c2-c2ccccn2)ccn1)C(CC(F)F)c1ccc(F)cc1 (racemic) [Example 60, (2RS)-4,4-difluoro-2-(4-fluorophenyl)-N-{4-[3-fluoro-7-(pyridin-2-yl)-5H-pyrrolo[2,3-b]pyrazin-6-yl]pyridin-2-yl}butanamide]	> 20000 nM	12.5	–
O=C(Nc1cc(-c2[nH]c3c(OCC4CCCO4)cc(F)nc3c2-c2ccccn2)ccn1)C(CC(F)F)c1ccc(F)cc1 (racemic) [Example 61, (2RS)-4,4-difluoro-N-{4-[5-fluoro-7-{[(2RS)-oxolan-2-yl]methoxy}-3-(pyridin-2-yl)-1H-pyrrolo[3,2-b]pyridin-2-yl]pyridin-2-yl}-2-(4-fluorophenyl)butanamide]	> 20000 nM	8.79	–
O=C(Nc1cc(-c2[nH]c3ncc(F)nc3c2-c2ccccn2)ccn1)C(CC(F)F)c1ccc(F)cc1 (racemic) [Example 62, (2RS)-4,4-difluoro-2-(4-fluorophenyl)-N-{4-[2-fluoro-7-(pyridin-2-yl)-5H-pyrrolo[2,3-b]pyrazin-6-yl]pyridin-2-yl}butanamide]	> 20000 nM	8.9	–
O=C(Nc1cc(-c2[nH]c3ccnnc3c2-c2ccccn2)ccn1)C(CC(F)F)c1ccc(F)cc1 (racemic) [Example 65, (2RS)-4,4-difluoro-2-(4-fluorophenyl)-N-{4-[7-(pyridin-2-yl)-5H-pyrrolo[3,2-c]pyridazin-6-yl]pyridin-2-yl}butanamide]	> 20000 nM	5.62	–
O=C(Nc1cc(-c2[nH]c3cc(Cl)nnc3c2-c2ccccn2)ccn1)C(CC(F)F)c1ccc(F)cc1 (racemic) [Example 68, (2RS)—N-{4-[3-chloro-7-(pyridin-2-yl)-5H-pyrrolo[3,2-c]pyridazin-6-yl]pyridin-2-yl}-4,4-difluoro-2-(4-fluorophenyl)butanamide]	> 20000 nM	14.4	–
O=C(Nc1cc(-c2[nH]c3c(N4CCOCC4)cc(F)nc3c2-c2ccccn2)ccn1)C(CC(F)F)c1ccc(F)cc1 (racemic) [Example 69, (2RS)-4,4-difluoro-N-{4-[5-fluoro-7-(morpholin-4-yl)-3-(pyridin-2-yl)-1H-pyrrolo[3,2-b]pyridin-2-yl]pyridin-2-yl}-2-(4-fluorophenyl)butanamide]	> 20000 nM	9.76	–
O=C(Nc1cc(-c2[nH]c3ccc(Cl)nc3c2-c2ccccn2)ccn1)C(CC(F)F)c1ccc(F)cc1 (racemic) [Example 70, (2RS)—N-{4-[5-chloro-3-(pyridin-2-yl)-1H-pyrrolo[3,2-b]pyridin-2-yl]pyridin-2-yl}-4,4-difluoro-2-(4-fluorophenyl)butanamide]	> 20000 nM	9.21	–
O=C(Nc1cc(-c2[nH]c3cc(F)cnc3c2-c2ccccn2)ccn1)C(CO)c1ccc(F)cc1 (racemic) [Example 71, (2RS)—N-(4-(6-fluoro-3-(pyridin-2-yl)-1H-pyrrolo[3,2-b]pyridin-2-yl)pyridin-2-yl)-2-(4-fluorophenyl)-3-hydroxypropanamide]	> 20000 nM	12.8	–
O=C(Nc1cc(-c2[nH]c3c(OCC(F)F)ncnc3c2-c2ccccn2)ccn1)C(CC(F)F)c1ccc(F)cc1 (racemic) [Example 78, (2RS)—N-{4-[4-(2,2-difluoroethoxy)-7-(pyridin-2-yl)-5H-pyrrolo[3,2-d]pyrimidin-6-yl]pyridin-2-yl}-4,4-difluoro-2-(4-fluorophenyl)butanamide]	> 20000 nM	5.15	–
O=C(Nc1cc(-c2[nH]c3c(N4CCNCC4)ccnc3c2-c2ccccn2)ccn1)C(CC(F)F)c1ccc(F)cc1 (racemic) [Example 92, (2RS)-4,4-difluoro-2-(4-fluorophenyl)-N-{4-[7-(piperazin-1-yl)-3-(pyridin-2-yl)-1H-pyrrolo[3,2-b]pyridin-2-yl]pyridin-2-yl}butanamide]	> 20000 nM	6.27	–
O=C(Nc1cc(-c2[nH]c3ccc(F)nc3c2-c2ccccn2)ccn1)[C@@H](CC(F)F)c1ccc(F)cc1 (single isomer, unassigned) [Example 2]	18400 nM and > 20000 nM	2.63	–
O=C(Nc1cc(-c2[nH]c3c(OC[C@H]4COCCO4)cc(F)nc3c2-c2ccccn2)ccn1)C(CC(F)F)c1ccc(F)cc1 (single isomer, unassigned) [Example 51, (2R or S)—N-{4-[7-{[(2R)-1,4-dioxan-2-yl]methoxy}-5-fluoro-3-(pyridin-2-yl)-1H-pyrrolo[3,2-b]pyridin-2-yl]pyridin-2-yl}-4,4-difluoro-2-(4-fluorophenyl)butanamide]	> 20000 nM	4.1	–
O=C(Nc1cc(-c2[nH]c3c(OC[C@H]4COCCO4)cc(F)nc3c2-c2ccccn2)ccn1)C(CC(F)F)c1ccc(F)cc1 (single isomer, unassigned) [Example 52, (2R or S)—N-{4-[7-{[(2R)-1,4-dioxan-2-yl]methoxy}-5-fluoro-3-(pyridin-2-yl)-1H-pyrrolo[3,2-b]pyridin-2-yl]pyridin-2-yl}-4,4-difluoro-2-(4-fluorophenyl)butanamide]	–	23.4	> 20000
O=C(Nc1cc(-c2[nH]c3c(O[C@H]4CCOC4)cc(F)nc3c2-c2ccccn2)ccn1)C(CC(F)F)c1ccc(F)cc1 (single isomer, unassigned) [Example 54, (2R or S)-4,4-difluoro-N-{4-[5-fluoro-7-{[(3S)-oxolan-3-yl]oxy}-3-(pyridin-2-yl)-1H-pyrrolo[3,2-b]pyridin-2-yl]pyridin-2-yl}-2-(4-fluorophenyl)butanamide]	> 20000 nM	3.7	–
O=C(Nc1cc(-c2[nH]c3c(O[C@H]4CCOC4)cc(F)nc3c2-c2ccccn2)ccn1)C(CC(F)F)c1ccc(F)cc1 (single isomer, unassigned) [Example 55, (2R or S)-4,4-difluoro-N-{4-[5-fluoro-7-{[(3S)-oxolan-3-yl]oxy}-3-(pyridin-2-yl)-1H-pyrrolo[3,2-b]pyridin-2-yl]pyridin-2-yl}-2-(4-fluorophenyl)butanamide]	–	24.9	> 20000
O=C(Nc1cc(-c2[nH]c3c(OC[C@@H]4COCCO4)cc(F)nc3c2-c2ccccn2)ccn1)C(CC(F)F)c1ccc(F)cc1 (single isomer, unassigned) [Example 58, (2R or S)—N-{4-[7-{[(2S)-1,4-dioxan-2-yl]methoxy}-5-fluoro-3-(pyridin-2-yl)-1H-pyrrolo[3,2-b]pyridin-2-yl]pyridin-2-yl}-4,4-difluoro-2-(4-fluorophenyl)butanamide]	> 20000 nM	3.03	–
O=C(Nc1cc(-c2[nH]c3c(OC[C@@H]4COCCO4)cc(F)nc3c2-c2ccccn2)ccn1)C(CC(F)F)c1ccc(F)cc1 (single isomer, unassigned) [Example 59, (2R or S)—N-{4-[7-{[(2S)-1,4-dioxan-2-yl]methoxy}-5-fluoro-3-(pyridin-2-yl)-1H-pyrrolo[3,2-b]pyridin-2-yl]pyridin-2-yl}-4,4-difluoro-2-(4-fluorophenyl)butanamide]	–	19.6	> 20000
